{
  "source": "patent US20070043114A1",
  "about": "“Nerve regeneration promoters” (priority 2003, published 2007)",
  "key": {"[1]": {"tested_on": "astrocytes derived from cerebral cortex of rats", "test": "differentiation test of astrocytes derived from cerebral cortex of rats", "format": "cell-based, rats of Wistar strain", "conditions": "for positive cell numbers per visual field stained by an anti-βIII-tubulin antibody: differentiated seven days, no compound-added group 93±10.9", "protocol": "Cerebrum was excised from newly-born rats of Wistar strain and, after removal of meninx under a stereoscopic microscope, it was ground with a frost part of a slide glass with frost in an ice-cooled DMEM medium to prepare a suspension. Centrifugal separation was conducted at 100×g for 3 minutes and the precipitate was suspended in a 10% bovine fetal serum-DMEM medium and sown in a 75-cm^2 flask. After two days from the start of culturing, cell purification was conducted. On the 19th day from the start of the culturing, astrocytes were recovered using 0.05% trypsin/EDTA and the cells were suspended again using a differentiation medium (a DMEM/F12 medium (Gibco) containing N2 additive (N2 Plus Supplement; R&D Systems) and 1% fetal bovine serum (manufactured by Dainippon Pharmaceutical). That was sown on a chamber slide and, on the next day, the culturing solution was exchanged to a differentiated medium (a DMEM/F12 medium comprising N2 additive, antibiotic and 1% fetal bovine serum) containing a test compound. After differentiating for seven days, fixation was conducted using 4% paraformaldehyde and the following immunostaining was conducted. With regard to nerve cells prepared by differentiation of astrocytes derived from cerebral cortex of rats, their differentiation stage was confirmed by means of immunostaining. Incidentally, anti-βIII-tubulin antibody and anti-doublecortin antibody were used for confirmation of young nerve cells; anti-MAP2 antibody, anti-NeuN antibody and anti-NSE antibody were used for confirmation of mature nerve cells; and anti-GABA antibody was used for confirmation of functional nerve cells."}, "sciatic nerve": {"tested_on": "sciatic nerve", "conditions": "mature rat, axon of sciatic nerve cut; Brain Research 975, 229-236 (2003); cited from earlier work"}, "[2]": {"conditions": "dog, in vivo, 100 mg/kg", "from_the_text": "Toxicity of the compound of the present invention is sufficiently low and has been confirmed to be sufficiently safe for using as a medicament."}, "[3]": {"tested_on": "four-vein ligated (4VO) rat model", "test": "4VO rat model: BrdU and NeuN double immunostaining, hippocampus CA1 region", "format": "in vivo, rat of Wistar strain", "conditions": "4VO rats, 10 mg/kg oral once daily for 40 days from 8th day after 4VO, n=13", "protocol": "(§1) A four-vein ligated (4VO) rat model was prepared by a partially modified method by Prusinery, et al. (J. Cereb. Blood Flow Metab., 16, 973-980 […]). Thus, vertebral arteries on both sides of male rat of Wistar strain were permanently obstructed and, on the next day, whole carotid artery was exposed and was temporally obstructed for 10 minutes using a clip. Rats where no response was noted immediately after obstruction of whole carotid arteries on both sides and forward-facing response disappeared were used for the experiment.\nEvaluation of nerve cell regeneration was conducted by preparing brain tissue sample by Nissl staining and counting nerve cell numbers in right and left hippocampus CA1 regions.\nConfirmation of the fact that […] nerve cells increased in Example 1-A-2-1 were regenerated nerve cells was conducted by preparing a brain tissue sample immunostained with BrdU and NeuN and counting nerve cell numbers which were positive to double staining in right and left hippocampus CA1 region. […] Nerve cell numbers which were positive to double staining were calculated as number per unit length (mm) using nerve cell layer length of the hippocampus CA1 region and nerve cell numbers which were positive to double staining."}, "[4]": {"tested_on": "four-vein ligated (4VO) rat model", "test": "4VO rat model: water maze learning test", "format": "in vivo, rat of Wistar strain", "conditions": "4VO rats; for successful times compared with the control group (χ2 test): fourth session, p<0.05", "protocol": "as §1\nA four-vein ligated (4VO) rat model was prepared according to a method mentioned in Example 1-A-1 and subjected to the following test.\nIn the water maze learning test, a black circular pool (manufactured by Neuroscience) of 150 cm diameter and 50 cm height was used. The pool was filled with tap water of about 23° C. to a height of about 30 cm (platform surface was about 1 cm beneath the water surface). The platform (made of colorless and transparent acrylate; circular shape having 10 cm diameter) which was to be a goal was placed in a distance of about 35 cm from the inner wall of the pool. During the test period, positions of things which were hints for recognition of space such as racks, illumination instruments and persons who conducted the experiments were made constant and illumination level was made constant as well.\nRats on the third day after completion of repetitive administrations were allowed to stand at a starting position and the time until they climbed up to the platform (escape latency (seconds)) was measured. Maximum swimming time for climbing up to the platform was made 90 seconds and, when a rat climbed up to the plant form, it was allowed to stand there for about 30 seconds and then returned to a cage. When a rat was unable to climb up to the platform within a measuring time of 90 seconds, the rat was taken out from water, transferred onto the platform, allowed to stand there for about 30 seconds and returned to the cage. Incidentally, the escape latency at that time was counted as 90 seconds. Interval between trials was made about 30 minutes, four trials were conducted a day and they were defined as one session. Such a session was conducted for continued four days and (1) escape latency and (2) successful times (times of being able to reach the platform during four trials) were evaluated."}, "[5]": {"tested_on": "four-vein ligated (4VO) rat model", "test": "4VO rat model: histological observation (Nissl-stained specimen), hippocampus CA1 nerve cell numbers", "format": "in vivo, rat of Wistar strain", "conditions": "4VO rats, 1 mg/kg oral", "protocol": "as §1\nA four-vein ligated (4VO) rat model was prepared according to a method mentioned in Example 1-A-1 and subjected to the following test. […]\nWith regard to the specimens for histopathological test, three kinds of specimens, i.e. (1) Nissl-stained specimen (a site of 5.7 mm from interaural line), (2) specimen stained with hematoxylin-eosin and (3) unstained specimen (thickness: 10 μm) were prepared for brain tissue sample from one animal. Among them, with regard to the Nissl-stained specimen, right and left hippocampus CA1 nerve cell layer lengths and nerve cell numbers were measured by using Image Analyzer (MCID Elite 7.0 Rev.1.0) and numbers per unit length (mm) were calculated to conduct a histological evaluation."}, "[6]": {"tested_on": "nerve stem cells derived from striatum of a rat", "test": "differentiation test of stem cells derived from fetal brain of rats", "format": "cell-based, rat of Wistar strain", "conditions": "30 μmol/L", "protocol": "Fetus was taken out from a pregnant rat of Wistar strain and striatum was excised from brain of the fetus. Cells were dispersed by means of pipetting and incubated for six to seven days in a growth medium (a DMEM/F12 medium (manufactured by Gibco) containing N2 additive (N2 Plus Supplement; R&D Systems), antibiotics, basic fibroblast growth factor (20 ng/mL bFGF; manufactured by R&D Systems) and epithelial cell growth factor (20 ng/mL EGF; manufactured by R&D Systems). The resulting neurospheres were recovered, cells were dispersed by means of pipetting and culturing was conducted for six to seven days more using a growth medium. Neurospheres which were produced again were recovered and, after cells were dispersed, they were cultured on a chamber slide subjected to a poly-L-ornithine coating. After incubating for 24 hours, exchange to a differentiated medium comprising a test compound (a DMEM/F12 medium comprising N2 additive, antibiotic and 1% fetal bovine serum) was conducted. After differentiating for seven days, fixation was conducted with 4% paraformaldehyde and a immunostaining was conducted using a mouse anti-βIII-tubulin antibody (second antibody: FITC-labeled anti-mouse IgG antibody) which is to be an index for differentiation from nerve stem cells to nerve cells).\nFor example, when 30 μmol/L of (2R)-2-propyloctanoic acid was used, the cell numbers in the no compound-added group were 8±1.3 (in eight visual fields) while those in the group to which the compound was added were 31±4.6 (in eight visual fields).\nWith regard to the above nerve cells prepared by differentiation of nerve stem cells derived from striatum of rats, their differentiation stage was confirmed by means of immunostaining. Incidentally, for the confirmation of mature nerve cells, anti-MAP2 antibody was used while, for the confirmation of functional nerve cells, anti-GABA antibody was used."}},
  "data": [
    {"smiles": "CCCC(CCC)C(=O)O", "note": "[2-propylpentanoic acid]", "values": [
      {"measurement": "positive cell numbers per visual field stained by an anti-βIII-tubulin antibody", "setting": "[1]; 300 μmol/L", "value": "174.8±7.8"},
      {"measurement": "axon elongation and recovery of kinetic function", "setting": "sciatic nerve", "value": "the axon is elongated and kinetic function is recovered"}
    ]},
    {"smiles": "CCCCCC[C@@H](CCC)C(=O)O", "note": "[(2R)-2-propyloctanoic acid]", "values": [
      {"measurement": "dead cases", "setting": "[2]", "value": "no dead case was noted"},
      {"measurement": "cells positive to double staining (anti-BrdU and anti-NeuN) per mm, hippocampus CA1 region", "setting": "[3]", "value": "5.7±1.2", "unit": "cells/mm"},
      {"measurement": "Escape latency", "setting": "[4]; 1 mg/kg oral, session 1", "value": "68.2 ± 3.5", "unit": "s"},
      {"measurement": "Escape latency", "setting": "[4]; 1 mg/kg oral, session 2", "value": "61.8 ± 4.4", "unit": "s"},
      {"measurement": "Escape latency", "setting": "[4]; 1 mg/kg oral, session 3", "value": "52.5 ± 6.9", "unit": "s"},
      {"measurement": "Escape latency", "setting": "[4]; 1 mg/kg oral, session 4", "value": "46.9 ± 7.6", "unit": "s"},
      {"measurement": "successful times compared with the control group (χ2 test)", "setting": "[4]; 3 mg/kg oral", "value": "significant difference"},
      {"measurement": "Escape latency", "setting": "[4]; 3 mg/kg oral, session 1", "value": "63.2 ± 3.8", "unit": "s"},
      {"measurement": "Escape latency", "setting": "[4]; 3 mg/kg oral, session 2", "value": "48.7 ± 5.5", "unit": "s"},
      {"measurement": "Escape latency", "setting": "[4]; 3 mg/kg oral, session 3", "value": "42.8 ± 6.4", "unit": "s"},
      {"measurement": "successful times compared with the control group (χ2 test)", "setting": "[4]; 10 mg/kg oral", "value": "significant difference"},
      {"measurement": "Escape latency", "setting": "[4]; 10 mg/kg oral, session 1", "value": "66.8 ± 3.7", "unit": "s"},
      {"measurement": "Escape latency", "setting": "[4]; 10 mg/kg oral, session 2", "value": "44.5 ± 4.5", "unit": "s"},
      {"measurement": "Escape latency", "setting": "[4]; 10 mg/kg oral, session 3", "value": "41.4 ± 5.2", "unit": "s"},
      {"measurement": "Nerve cell density, hippocampus CA1 region", "setting": "[5]", "value": "45.0 ± 5.6", "unit": "cells/mm"},
      {"measurement": "βIII-tubulin-positive (Tuj1+) cell numbers per visual field", "setting": "[6]; differentiated seven days, eight visual fields, 100 magnifications, no compound-added group 8±1.3", "value": "31±4.6"},
      {"measurement": "positive cell numbers per visual field stained using an anti-GABA antibody", "setting": "[6]; no compound-added group 19±2.7", "value": "101±9.5"},
      {"measurement": "positive cell numbers per visual field stained using an anti-MAP2 antibody", "setting": "[6]; no compound-added group 34±0.9", "value": "50±7.4"},
      {"measurement": "positive cell numbers per visual field stained by an anti-βIII-tubulin antibody", "setting": "[1]; 30 μmol/L", "value": "177±11.8"},
      {"measurement": "positive cell numbers stained by an anti-GABA antibody", "setting": "[1]; 30 μmol/L, no compound-added group 20±1.0", "value": "60±8.8"},
      {"measurement": "positive cell numbers stained by an anti-MAP2 antibody", "setting": "[1]; 30 μmol/L, no compound-added group 50±7.4", "value": "104±10.3"},
      {"measurement": "positive cell numbers stained by an anti-doublecortin antibody", "setting": "[1]; 30 μmol/L, no compound-added group 55±5.7", "value": "168±16.6"},
      {"measurement": "positive cell numbers stained by an anti-NeuN antibody", "setting": "[1]; 30 μmol/L, no compound-added group 106", "value": 199},
      {"measurement": "positive cell numbers stained by an anti-NSE antibody", "setting": "[1]; 30 μmol/L, no compound-added group 108", "value": 166},
      {"measurement": "positive cell numbers per visual field stained by an anti-βIII-tubulin antibody", "setting": "[1]; 100 μmol/L", "value": "230±11.0"}
    ]}
  ]
}
